Measurements taken from patent US20210267207A1, “NOVEL AGROCHEMICAL COMBINATIONS” (priority 2018, published 2021).
Like-named read-outs stand apart in the source and are kept apart here.

Columns and labels:
white ears in paddy = assay: Field trial on white ears in paddy, number of white ears per plot; assay type: in vivo
[1] = assay type: in vivo; conditions: paddy
stem borer = assay: Field trial of the combination on stem borer in paddy, % mortality; assay type: in vivo
Description: Trials were conducted to test the efficacy of the combination of Chlorantraniliprole+Dinotefuran+Pymetrozine on stem borer in paddy: […]

## CNC(=N[N+](=O)[O-])NCC1CCOC1 (racemic) [Dinotefuran, (EZ)—(RS)-1-methyl-2-nitro-3-(tetrahydro-3-furylmethyl)guanidine]
White ears in paddy; dose 40 gm. ai/ha
  Number of white ears per plot 7 DAA: 11
  Number of white ears per plot 14 DAA: 19
  Number of white ears per plot 21 DAA: 41
[1]; dose 40 gm. ai/ha
  Yield: 3500
Stem borer; dose 40 gm. ai/ha
  % mortality 3 DAA: 65%
  % mortality 7 DAA: 75%
  % mortality 10 DAA: 75%
  % mortality 14 DAA: 70%

## CNC(=O)c1cc(Cl)cc(C)c1NC(=O)c1cc(Br)nn1-c1ncccc1Cl [Chlorantraniliprole, 3-bromo-4′-chloro-1-(3-chloro-2-pyridyl)-2′-methyl-6′-(methylcarbamoyl)pyrazole-5-carboxanilide]
White ears in paddy; dose 30 gm. ai/ha
  Number of white ears per plot 7 DAA: 5
  Number of white ears per plot 14 DAA: 7
  Number of white ears per plot 21 DAA: 14
[1]; dose 30 gm. ai/ha
  Yield: 4322
Stem borer; dose 30 gm. ai/ha
  % mortality 3 DAA: 3%
  % mortality 7 DAA: 7%
  % mortality 10 DAA: 7.9%
  % mortality 14 DAA: 6.9%

## CC1=NNC(=O)N(/N=C/c2cccnc2)C1 [Pymetrozine]
White ears in paddy; dose 150 gm. ai/ha
  Number of white ears per plot 7 DAA: 12
  Number of white ears per plot 14 DAA: 22
  Number of white ears per plot 21 DAA: 43
[1]; dose 150 gm. ai/ha
  Yield: 3600
Stem borer; dose 150 gm. ai/ha
  % mortality 3 DAA: 75%
  % mortality 7 DAA: 88%
  % mortality 10 DAA: 89%
  % mortality 14 DAA: 79%
